Assay results published in patent US6737383B1, “Herbicidal oxadiazolidines” (priority 1999, dated 2004).

Legend:
[1] = test system: crabgrass; assay: Test B pre/postemergence crabgrass; assay type: in vivo, Digitaria sanguinalis
Method in brief: (§1)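 Test chemicals in a non-phytotoxic solvent mixture with surfactant were sprayed preemergence onto planted seeds and postemergence onto plants 2 to 18 cm tall (1- to 4-leaf stage). After twelve to sixteen days in a greenhouse, injury was visually rated against untreated controls from 0 (no effect) to 10 (complete control).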

[2] = test system: giant foxtail; assay: Test B pre/postemergence giant foxtail; assay type: in vivo, Setaria faberii
Method in brief: as §1

[3] = test system: wild oat; assay: Test B pre/postemergence wild oat; assay type: in vivo, Avena fatua
Method in brief: as §1

[4] = test system: corn; assay: Test B pre/postemergence corn; assay type: in vivo, Zea mays
Method in brief: as §1

[5] = test system: rape; assay: Test B pre/postemergence rape; assay type: in vivo, Brassica napus
Method in brief: as §1

[6] = test system: bedstraw; assay: Test B pre/postemergence bedstraw; assay type: in vivo, Galium aparine; conditions: Preemergence; for Bedstraw plant response rating: scale 0 to 10, 0 is no effect, 10 is complete control
Method in brief: as §1

[7] = test system: purple nutsedge; assay: Test B pre/postemergence purple nutsedge; assay type: in vivo, Cyperus rotundus
Method in brief: as §1

[8] = test system: morningglory; assay: Test B pre/postemergence morningglory; assay type: in vivo, Ipomoea hederacea
Method in brief: as §1

[9] = test system: sugar beet; assay: Test B pre/postemergence sugar beet; assay type: in vivo, Beta vulgaris
Method in brief: as §1

[10] = test system: soybean; assay: Test B pre/postemergence soybean; assay type: in vivo, Glycine max
Method in brief: as §1

[11] = test system: cocklebur; assay: Test B pre/postemergence cocklebur; assay type: in vivo, Xanthium strumarium
Method in brief: as §1

[12] = test system: surinam grass; assay: Test B pre/postemergence surinam grass; assay type: in vivo, Brachiaria decumbens
Method in brief: as §1

[13] = test system: pigweed; assay: Test B pre/postemergence pigweed; assay type: in vivo, Amaranthus retroflexus
Method in brief: as §1

[14] = test system: blackgrass; assay: Test B pre/postemergence blackgrass; assay type: in vivo, Alopecurus myosuroides
Method in brief: as §1

[15] = test system: wheat; assay: Test B pre/postemergence wheat; assay type: in vivo, Triticum aestivum
Method in brief: as §1

[16] = test system: velvetleaf; assay: Test B pre/postemergence velvetleaf; assay type: in vivo, Abutilon theophrasti
Method in brief: as §1

[17] = Postemergence, Rate 62 g/ha, scale of 0 to 10, 0 is no effect, 10 is complete control
[18] = Postemergence, Rate 125 g/ha, scale 0 to 10, 0 is no effect, 10 is complete control
[19] = Postemergence, Rate 250 g/ha, scale 0 to 10
[20] = Postemergence, Rate 500 g/ha, scale 0 to 10, 0 is no effect, 10 is complete control
[21] = Preemergence, Rate 62 g/ha, scale of 0 to 10 where 0 is no effect and 10 is complete control
[22] = Preemergence, Rate 125 g/ha, scale 0 to 10, 0 is no effect, 10 is complete control
[23] = Preemergence, Rate 500 g/ha, scale of 0 to 10 where 0 is no effect and 10 is complete control
[24] = Preemergence, Rate 250 g/ha, scale 0 to 10, 0 is no effect, 10 is complete control

Cc1noc(C)c1Cn1c(=O)on(C(=O)N(c2ccc(F)cc2F)C(C)C)c1=O [Compound 510]
2: Plant response rating, Rape [5, 21] | Sugarbeets plant response rating [9, 17] | B. signalgrass plant response rating [12, 17] | Velvetleaf plant response rating [16, 22]
10: Giant foxtail plant response rating [2, 23] | Redroot pigweed plant response rating [13, 23]
9: Plant response rating, Crabgrass [1, 20] | Crabgrass plant response rating [1, 22] | Crabgrass plant response rating [1, 23] | Plant response rating, Giant foxtail [2, 20] | Plant response rating, Giant foxtail [2, 21] | Giant foxtail plant response rating [2, 22] | Plant response rating, Rape [5, 20] | Rape plant response rating [5, 23] | B. signalgrass plant response rating ([12]; Preemergence, Rate 500 g/ha, scale 0 to 10, 0 is no effect, 10 is complete control) | Redroot pigweed plant response rating [13, 22]
3: Crabgrass plant response rating [1, 17] | Cocklebur plant response rating [11, 17] | Cocklebur plant response rating [11, 18] | Plant response rating, Wheat [15, 20]
1: Rape plant response rating [5, 17] | Plant response rating, Velvetleaf [16, 21]
8: Crabgrass plant response rating [1, 18] | Crabgrass plant response rating [1, 19] | Plant response rating, Sugarbeets [9, 20] | Plant response rating, Soybean [10, 20] | B. signalgrass plant response rating [12, 24] | Blackgrass plant response rating [14, 23]
6: Giant foxtail plant response rating [2, 18] | Wild oats plant response rating [3, 22] | Plant response rating, Morningglory [8, 20] | Plant response rating, B. signalgrass [12, 20] | Plant response rating, Blackgrass [14, 20] | Plant response rating, Blackgrass [14, 21] | Blackgrass plant response rating [14, 22] | Velvetleaf plant response rating [16, 23]
5: Plant response rating, Crabgrass [1, 21] | Plant response rating, Wild oats [3, 20] | Corn plant response rating [4, 23] | Rape plant response rating [5, 22] | Morningglory plant response rating [8, 18] | Morningglory plant response rating [8, 23] | Blackgrass plant response rating [14, 17] | Blackgrass plant response rating [14, 18] | Blackgrass plant response rating [14, 19]
7: Wild oats plant response rating [3, 23] | Sugarbeets plant response rating [9, 23] | Soybean plant response rating [10, 18] | Plant response rating, B. signalgrass [12, 21] | B. signalgrass plant response rating [12, 22] | Redroot pigweed plant response rating [13, 17] | Redroot pigweed plant response rating [13, 18] | Plant response rating, Redroot pigweed [13, 21] | Blackgrass plant response rating [14, 24] | Plant response rating, Velvetleaf [16, 20]
0: Wild oats plant response rating [3, 17] | Wild oats plant response rating [3, 18] | Corn plant response rating [4, 17] | Corn plant response rating [4, 18] | Corn plant response rating [4, 19] | Plant response rating, Corn [4, 20] | Plant response rating, Corn [4, 21] | Corn plant response rating [4, 22] | Plant response rating, Bedstraw ([6]; Rate 62 g/ha, scale of 0 to 10 where 0 is no effect and 10 is complete control) | Bedstraw plant response rating ([6]; Rate 125 g/ha) | Bedstraw plant response rating ([6]; Rate 250 g/ha) | Nutsedge plant response rating [7, 18] | Plant response rating, Nutsedge [7, 20] | Plant response rating, Nutsedge [7, 21] | Nutsedge plant response rating [7, 22] | Nutsedge plant response rating [7, 23] | Plant response rating, Morningglory [8, 21] | Morningglory plant response rating [8, 22] | Plant response rating, Sugarbeets [9, 21] | Sugarbeets plant response rating [9, 22] | Plant response rating, Soybean [10, 21] | Soybean plant response rating [10, 22] | Soybean plant response rating [10, 23] | Plant response rating, Cocklebur [11, 21] | Cocklebur plant response rating [11, 22] | Cocklebur plant response rating [11, 23] | Wheat plant response rating [15, 17] | Wheat plant response rating [15, 18] | Plant response rating, Wheat [15, 21] | Wheat plant response rating [15, 22] | Wheat plant response rating [15, 23]
4: Giant foxtail plant response rating [2, 17] | Plant response rating, Wild oats [3, 21] | Rape plant response rating [5, 18] | Bedstraw plant response rating ([6]; Rate 500 g/ha) | Morningglory plant response rating [8, 17] | Sugarbeets plant response rating [9, 18] | Soybean plant response rating [10, 17] | Cocklebur plant response rating [11, 19] | Plant response rating, Cocklebur [11, 20] | B. signalgrass plant response rating [12, 18] | B. signalgrass plant response rating ([12]; Postemergence, Rate 250 g/ha, scale 0 to 10, 0 no effect, 10 complete control) | Velvetleaf plant response rating [16, 17] | Velvetleaf plant response rating [16, 18]
